Earlier results in patent US4966768A, “Sustained release etodolac” (priority 1988, dated 1990).
“Also recorded” adds a separate entry of the source.

How the values were obtained:
[1] = in vivo
[2] = system: adjuvant arthirtis; conditions: reported in U.S. Pat. No. 4,533,551

In the case of CCc1cccc2c3c([nH]c12)C(CC)(CC(=O)O)OCC3 (centres unmarked) [Etodolac, 1,8-diethyl-1,3,4,9-tetrahydropyrano[3,4-b] indole-1-acetic acid], the “reported pharmacological properties (in words)” value [1] is given as “analgesic and anti-inflammatory properties”, the “aqueous solubility (in words)” value (below pH 3) is given as “very low and pH independent below pH 3; also recorded: water insoluble to an appreciable extent below pH 3” and the “difference in solubility between pH 5 and 7” value (between pH 5 to 7) is given as “thirty”. For the same molecule, the “aqueous solubility with rising pH (in words)” value (up to pH 5 and from pH 5 to 7) was “gradually increases with rising pH up to 5 and linearly increases with increasing pH to 7” and the “activity in adjuvant arthritis (in words)” value [2] was “active in the treatment of adjuvant arthirtis”.
